{"source": "patent US6808724B2", "about": "“Artemisolide compound isolated from the aerial parts of Artemisia sylvatica, isolation method, and use thereof” (Korea Research Institute of Bioscience and Biotechnology, priority 2002, dated 2004)", "key": {"[1]": {"test_system": "H-ras (H-ras gene transformed NIH3T3 cell)", "assay": "Cell growth inhibition (WST-1), H-ras", "format": "cell-based", "details": "Mus musculus, 48 hr culture, read-out: GI50, the concentration when the cancer cell growth is inhibited by 50%", "procedure": "(§1) NIH3T3 (mouse fibroblast), K-ras (K-ras gene transformed NIH3T3 cell), H-ras (H-ras gene transformed NIH3T3 cell) and SW620 (human colon cancer cell) solid tumor cell lines were cultured in 10% of bovine serum albumin or RPMI 1640 medium (containing L-glutamine and not containing sodium bicarbonate; Gibco Cat. No 31800-022) under 37° C. and 5% CO2 condition. The subculture was carried out 2 times a week. The cells were separated from the wall using 0.5% of trypsin and 5.3 mM EDTA (ethylenediamine tetra acetic acid) dissolved in phosphate buffer solution (PBS). In each well of 96-well plate (Falcon), 3×10^3-6×10^3 cells were added and cultured at 37° C. in the presence of 5% CO2 of medium for 24 hr. The new compound was dissolved in dimethyl sulfoxide (DMSO) and diluted to the concentration required for the test. The final concentration of DMSO was set to be lower than 0.5%.\n(§2) After removing all medium from the 96-well plate, […] of the new compound was added to each well. After 48 hr of culture, WST-1 was added to each well. Then the culture plate was placed for 3 hr at 37° C. in the presence of 5% CO2. When the reaction was completed, light absorption at 450-690 nm was measured by using an ELISA reader to identify the cancer cell growth inhibition effect."}, "farnesyl transferase": {"biological_target": "T1, farnesyl transferase (Rattus norvegicus, UniProt Q02293+Q04631)", "T1 construct": "100-150 g of brain was separated from a male rat (Sprague Dowley); from tissue; host or cells: rat (Sprague Dawley) brain", "assay": "Farnesyl transferase inhibition, scintillation proximity assay with 3H-FPP and biotin-lamin B peptide", "format": "biochemical", "procedure": "100-150 g of brain was separated from a male rat (Sprague Dowley). It was washed with a physiological salt solution and homogenized. Then, farnesyl transferase enzymogen was separated by centrifuging and partially purifying the homogenate with a Q Sepharose Fast Flow Column. The enzyme activity was determined by scintillation proximity assay (SPA), using the ^3H-farnesyl pyrophosphate (FPP) substrate.\nTo be specific, the method of Michael S. Brown, etc. (Yuval Reiss, Joseph L. Goldstein, Miguel C. Seabra, Patrick J. Casey and Michael S. Brown, 1990, Inhibition of Purified p21ras Farnesyl Protein Transferase by Cys-AAX Tetrapeptides, 62, 81-88) was modified a little. 10 μl of the sample liquid, 10 μl of analysis buffer solution (50 mM Tris-HCL pH7.5, 25 mM MgCl2, 2 mM KCl, 5 mM DTT, 5 mM Na2HPO4, 0.01% Triton X-100), 20 μl of diluted ^3H-FPP, 20 μl biotin-lamin B peptide and 40 μl of farnesyl transferase were mixed well and rendered to react for 30 min at room temperature. Then, 150 μl of SPA bead/stop reagent solution was added. The farnesylation level of biotin-lamin B peptide was measured by using a scintillation counter in CPM (counts per minute) unit. The farnesyl transferase activity inhibition was calculated via Equation 1. [formula] […]"}, "[2]": {"test_system": "SW620 (human colon cancer cell)", "assay": "Cell growth inhibition (WST-1), SW620", "format": "cell-based", "details": "SW-620, 48 hr culture, read-out: GI50, the concentration when the cancer cell growth is inhibited by 50%", "procedure": "as §1, §2"}, "[3]": {"test_system": "NIH3T3 (mouse fibroblast)", "assay": "Cell growth inhibition (WST-1), NIH3T3", "format": "cell-based", "details": "48 hr culture, read-out: GI50, the concentration when the cancer cell growth is inhibited by 50%", "procedure": "as §1, §2"}, "[4]": {"assay": "Physical and chemical properties: solubility in solvents", "format": "physicochemical", "procedure": "The structure of the obtained white powder compound was analyzed by NMR. The compound is expressed by Formula 1 (molecular formula=C25H32O4; molecular weight=396.52)."}, "Molt-4 cell": {"test_system": "Molt-4 cell", "assay": "Leukemia cell growth inhibition, Molt-4", "format": "cell-based", "details": "Homo sapiens, read-out: GI50, the concentration when the cancer cell growth is inhibited by 50%", "procedure": "as §2"}, "[5]": {"test_system": "K-ras (K-ras gene transformed NIH3T3 cell)", "assay": "Cell growth inhibition (WST-1), K-ras", "format": "cell-based", "details": "Mus musculus, 48 hr culture, read-out: GI50, the concentration when the cancer cell growth is inhibited by 50%", "procedure": "as §1, §2"}, "HL-60 cell": {"test_system": "HL-60 cell", "assay": "Leukemia cell growth inhibition, HL-60", "format": "cell-based", "details": "Homo sapiens, read-out: GI50, the concentration when the cancer cell growth is inhibited by 50%", "procedure": "as §2"}, "mice": {"test_system": "mice", "assay": "Toxicity test in mice", "format": "in vivo", "procedure": "The compound expressed by the formula 1 was dissolved in dimethyl sulfoxide (DMSO). The solution was diluted with water and administered to mice (10 heads per group) by 100 μg/kg."}}}
{"compound": "C=C1C(=O)O[C@@H]2[C@@H]1CC[C@](C)(O)C13C=CC(C)([C@@H]21)[C@]1(C3)C(=O)C[C@@]2(C(C)C)C[C@H]21", "note": "(some centres unmarked) [Formula 1, Artemisolide]", "values": [{"measurement": "GI50", "setting": "[1]", "result": 1.2, "unit": "µg/mL"}, {"measurement": "inhibition at 100 µg/mL", "setting": "farnesyl transferase; at 100 μg/ml", "result": "~50", "unit": "%"}, {"measurement": "IC50", "setting": "farnesyl transferase; read-out: IC50 (concentration for inhibiting activity by 50%) on farnesyl transferase (converted)", "result": "~252", "unit": "µM"}, {"measurement": "GI50", "setting": "[2]", "result": 2.5, "unit": "µg/mL"}, {"measurement": "GI50", "setting": "[3]", "result": "~5.5", "unit": "µg/mL"}, {"measurement": "Insoluble in", "setting": "[4]", "result": "Hexane"}, {"measurement": "Soluble in", "setting": "[4]", "result": "MeOH; acetone; EtOAc"}, {"measurement": "GI50", "setting": "Molt-4 cell", "result": 3.2, "unit": "µM"}, {"measurement": "GI50", "setting": "[5]", "result": "~0.8", "unit": "µg/mL"}, {"measurement": "GI50", "setting": "HL-60 cell", "result": "~1.5", "unit": "µM"}, {"measurement": "acute toxicity in the animal test", "setting": "mice", "result": "no acute toxicity"}]}
